Experiment [1] concerns subjects with type 2 diabetes. As to conditions: 14-day multiple ascending dose, compared to placebo, FIG. 2.
Description: Results from the 24-hour glucose excretion are shown in FIG. 2 for all subjects in the MB-102003 study. The mean urine glucose is in the darker lines.
The next experiment relates to healthy subjects. As to conditions: healthy subjects taking 5, 20, 50 or 100 mg; versus known SGLT2 inhibitor GSK 869,682 (50, 100, 200 or 500 mg); FIG. 1.

Protocol for healthy subjects: The panel at the top of FIG. 1 is from a presentation by GSK in an analyst meeting, showing the amount of glucose excretion/day in healthy subjects taking 50, 100, 200 or 500 mg of GSK 869,682. The panel at the bottom is from study MB-102001, showing the amount of glucose excretion/day in healthy subjects taking 5, 20, 50 or 100 mg of compound Ia.

`CCOc1ccc(Cc2cc([C@@H]3O[C@H](CO)[C@@H](O)[C@H](O)[C@H]3O)ccc2Cl)cc1` [compound Ia]: the “24-hour urine glucose excretion” value in experiment [1] is reported as “higher urine glucose excretion”. Also, the “glucosuric effect: loss of calories in the urine (glucose excretion/day)” value with healthy subjects is “significant loss of calories in the urine”.
